Measured values published in article PMC9694334, “Synthesis and Biological Evaluation of a Fused Structure of Indolizine and Pyrrolo[1,2-c]pyrimidine: Identification of Its Potent Anticancer Activity against Liver Cancer Cells” (Pharmaceuticals, 2022).

Key:
HepG2 cells = assay: Cell viability assay (MTS) in HepG2 cells; format: cell-based; conditions: mean; for % Inhibition of Cell Viability at 10 μM HepG2: n = 3; for IC50: Homo sapiens, MTS, n = 5, 72 h for 5r (Figure 2)
Procedure: (§1) HepG2, Huh7, H1299, HT29, AGS and A549 cells were purchased from the Korean Cell Line Bank (Seoul, Korea) and HaCaT cells were obtained from Prof. Sohee Kwon (Yonsei University, Korea). Liver cancer cells (HepG2), human keratinocyte cells (HaCaT), and lung cancer cells (A549) were grown in DMEM high-glucose medium, liver cancer cells (Huh7) and non-small cell lung cancer cells (H1299) were grown in RPMI 1640, and gastric cancer cells (AGS) were grown in Coon’s modified F12 medium. All media were supplemented with 10% FBS, 100 Units/mL penicillin, and 100 μg/mL streptomycin. All cells were incubated at 37 °C, 5% CO2 and 95% humidity.
(§2) Cell viability assay was conducted using Cell Titer 96® AQueous One Solution Cell proliferation Assay kit (Promega, Madison, WI, USA). Five cancer cells and HaCaT cells were plated in 96-well microplates with growth medium for 24 h. When cell confluency reached ~30%, cells were treated with DMSO (vehicle) and test compounds. The medium and test compounds were replaced every 24 h. To measure cell viability, the cells were incubated with MTS solution for 1 h. The absorbance was measured by using Infinite M200 microplate reader (Tecan, Männedorf, Switzerland) at 490 nm.
(§3) Figure 2 Effect of 5r on cell viability in HepG2, Huh7, AGS, H1299, A549, HaCaT, NIH3T3, and HEK293T cells. (A–H) HepG2, Huh7, AGS, H1299, A549, HaCaT, NIH3T3, and HEK293T cells were cultured with 5r at the indicated concentrations for 72 h, and medium was replaced every 24 h with freshly added 5r. Cell viability was measured by MTS analysis (mean ± S.D., n = 5). * p < 0.05, ** p < 0.01, *** p < 0.001.

HT29 cells = assay: Cell viability assay (MTS) in HT29 cells; format: cell-based; conditions: mean, n = 3
Procedure: as §1, §2

H1299 cells = assay: Cell viability assay (MTS) in H1299 cells; format: cell-based; conditions: 10 μM, mean, n = 3
Procedure: as §1, §2, §3

AGS cells = assay: Cell viability assay (MTS) in AGS cells; format: cell-based; conditions: 10 μM, mean, n = 3
Procedure: as §1, §2, §3

A549 cells = assay: Cell viability assay (MTS) in A549 cells; format: cell-based; conditions: 10 μM, mean, n = 3
Procedure: as §1, §2, §3

HaCaT cells = assay: Cell viability assay (MTS) in HaCaT cells; format: cell-based, human; conditions: Homo sapiens, mean, n = 5
Procedure: as §1, §2, §3

Huh7 cells = assay: Cell viability assay (MTS) in Huh7 cells; format: cell-based; conditions: Homo sapiens, Huh-7, mean, n = 5, 72 h for 5r (Figure 2)
Procedure: as §1, §2, §3

IC50 (HepG2 cells) [µM] | IC50 (Huh7 cells) [µM] | Compound | % Inhibition of Cell Viability at 10 μM HepG2 (HepG2 cells) [%] | % Inhibition of Cell Viability at 10 μM HT29 (HT29 cells) [%] | % Inhibition of Cell Viability at 10 μM H1299 (H1299 cells) [%] | % Inhibition of Cell Viability at 10 μM AGS (AGS cells) [%] | % Inhibition of Cell Viability at 10 μM A549 (A549 cells) [%] | IC50 (HaCaT cells) [µM]
– | – | N#Cc1c2c3cccn3c(-c3ccccc3)nc2n2ccccc12 [Compound 5a, 5-Phenylpyrrolo[1′,2′:1,6]pyrimido[5,4-b]indolizine-12-carbonitrile] | 85.0 | <25 | 81.5 | <25 | <25 | –
1.17 | 0.87 | COc1cc(O)c(-c2nc3c(c(C#N)c4ccccn43)c3cccn23)cc1OC [Compound 5aa, 5-(2-Hydroxy-4,5-dimethoxyphenyl)pyrrolo[1′,2′:1,6]pyrimido[5,4-b]indolizine-12-carbonitrile] | – | – | – | – | – | 2.21
0.84 | 0.71 | N#Cc1c2c3cccn3c(-c3cc(Cl)ccc3O)nc2n2ccccc12 [Compound 5ab, 5-(5-Chloro-2-hydroxyphenyl)pyrrolo[1′,2′:1,6]pyrimido[5,4-b]indolizine-12-carbonitrile] | – | – | – | – | – | 2.3
– | – | COc1ccc(-c2nc3c(c(C#N)c4ccccn43)c3cccn23)cc1 [Compound 5b, 5-(4-Methoxyphenyl)pyrrolo[1′,2′:1,6]pyrimido[5,4-b]indolizine-12-carbonitrile] | 57.0 | <25 | 79.1 | <25 | 25.5 | –
– | – | COc1ccc(-c2nc3c(c(C#N)c4ccccn43)c3cccn23)cc1OC [Compound 5c, 5-(3,4-Dimethoxyphenyl)pyrrolo[1′,2′:1,6]pyrimido[5,4-b]indolizine-12-carbonitrile] | 76.7 | 44.0 | 94.0 | 56.0 | 47.1 | –
– | – | COc1cc(OC)cc(-c2nc3c(c(C#N)c4ccccn43)c3cccn23)c1 [Compound 5d, 5-(3,5-Dimethoxyphenyl)pyrrolo[1′,2′:1,6]pyrimido[5,4-b]indolizine-12-carbonitrile] | 57.3 | <25 | 83.4 | <25 | <25 | –
– | – | COc1cc(-c2nc3c(c(C#N)c4ccccn43)c3cccn23)cc(OC)c1OC [Compound 5e, 5-(3,4,5-Trimethoxyphenyl)pyrrolo[1′,2′:1,6]pyrimido[5,4-b]indolizine-12-carbonitrile] | 37.7 | <25 | 89.0 | <25 | 25.3 | –
– | – | N#Cc1c2c3cccn3c(-c3ccc4ccccc4c3)nc2n2ccccc12 [Compound 5f, 5-(Naphthalen-2-yl)pyrrolo[1′,2′:1,6]pyrimido[5,4-b]indolizine-12-carbonitrile] | 92.5 | <25 | 88.4 | <25 | <25 | –
– | – | N#Cc1c2c3cccn3c(-c3cccc4ccccc34)nc2n2ccccc12 [Compound 5g, 5-(Naphthalen-1-yl)pyrrolo[1′,2′:1,6]pyrimido[5,4-b]indolizine-12-carbonitrile] | 49.2 | <25 | 82.8 | <25 | <25 | –
– | – | N#Cc1c2c3cccn3c(-c3ccc(Cl)cc3)nc2n2ccccc12 [Compound 5h, 5-(4-Chlorophenyl)pyrrolo[1′,2′:1,6]pyrimido[5,4-b]indolizine-12-carbonitrile] | 88.4 | 26.9 | 80.0 | 31.0 | 52.5 | –
– | – | N#Cc1c2c3cccn3c(-c3ccc(Br)cc3)nc2n2ccccc12 [Compound 5i, 5-(4-Bromophenyl)pyrrolo[1′,2′:1,6]pyrimido[5,4-b]indolizine-12-carbonitrile] | 87.4 | <25 | 92.1 | <25 | 36.7 | –
– | – | COC(=O)c1ccc(-c2nc3c(c(C#N)c4ccccn43)c3cccn23)cc1 [Compound 5j, Methyl 4-(12-cyanopyrrolo[1′,2′:1,6]pyrimido[5,4-b]indolizin-5-yl)benzoate] | 42.2 | <25 | 52.8 | <25 | <25 | –
– | – | N#Cc1c2c3cccn3c(-c3ccccn3)nc2n2ccccc12 [Compound 5k, 5-(Pyridin-2-yl)pyrrolo[1′,2′:1,6]pyrimido[5,4-b]indolizine-12-carbonitrile] | 90.6 | 28.8 | 83.8 | <25 | 29.0 | –
– | – | N#Cc1c2c3cccn3c(-c3cc4ccccc4[nH]3)nc2n2ccccc12 [Compound 5l, 5-(1H-Indol-2-yl)pyrrolo[1′,2′:1,6]pyrimido[5,4-b]indolizine-12-carbonitrile] | 99.2 | 58.6 | 62.3 | <25 | 46.9 | –
– | – | N#Cc1c2c3cccn3c(-c3ccco3)nc2n2ccccc12 [Compound 5m, 5-(Furan-2-yl)pyrrolo[1′,2′:1,6]pyrimido[5,4-b]indolizine-12-carbonitrile] | 64.0 | <25 | 81.9 | <25 | <25 | –
2 | 1.47 | N#Cc1c2c3cccn3c(-c3cccnc3)nc2n2ccccc12 [Compound 5o, 5-(Pyridin-3-yl)pyrrolo[1′,2′:1,6]pyrimido[5,4-b]indolizine-12-carbonitrile] | – | – | – | – | – | 3.98
3.42 | 2.25 | COc1ccccc1-c1nc2c(c(C#N)c3ccccn32)c2cccn12 [Compound 5p, 5-(2-Methoxyphenyl)pyrrolo[1′,2′:1,6]pyrimido[5,4-b]indolizine-12-carbonitrile] | – | – | – | – | – | 16.2
– | – | N#Cc1c2c3cccn3cnc2n2ccccc12 [Compound 8, Pyrrolo[1′,2′:1,6]pyrimido[5,4-b]indolizine-12-carbonitrile] | <25 | <25 | <25 | <25 | <25 | –
– | – | N#Cc1c2c3[nH]c4ccccc4c3c(-c3ccccc3)nc2n2ccccc12 [Compound 10a, 7-Phenyl-12H-indolizino[2′,3′:5,6]pyrido[4,3-b]indole-13-carbonitrile] | <25 | 61.2 | 68.8 | 48.4 | 45.9 | –
– | – | COc1ccc(-c2nc3c(c(C#N)c4ccccn43)c3[nH]c4ccccc4c23)cc1 [Compound 10b, 7-(4-Methoxyphenyl)-12H-indolizino[2′,3′:5,6]pyrido[4,3-b]indole-13-carbonitrile] | <25 | <25 | <25 | <25 | <25 | –
– | – | N#Cc1c2c3[nH]c4ccccc4c3c(-c3ccc(Br)cc3)nc2n2ccccc12 [Compound 10c, 7-(4-Bromophenyl)-12H-indolizino[2′,3′:5,6]pyrido[4,3-b]indole-13-carbonitrile] | 39.6 | <25 | <25 | <25 | <25 | –
